Reference: ChEMBL document CHEMBL1151008, “Synthesis and evaluation of 4-5-dehydro-5-fluoroaristeromycins as S-adenosyl-L-homocysteine (AdoHcy) hydrolase inhibitors” (Bioorg Med Chem Lett, 1992)

Legend:
Adenosylhomocysteinase = molecular target: T1, Adenosylhomocysteinase (Rattus norvegicus, UniProt P10760); test: Compound was tested for its inhibitory activity against recombinant rat liver S-adenosyl-homocysteine hydrolase
T1 sequence (P10760 whole entry): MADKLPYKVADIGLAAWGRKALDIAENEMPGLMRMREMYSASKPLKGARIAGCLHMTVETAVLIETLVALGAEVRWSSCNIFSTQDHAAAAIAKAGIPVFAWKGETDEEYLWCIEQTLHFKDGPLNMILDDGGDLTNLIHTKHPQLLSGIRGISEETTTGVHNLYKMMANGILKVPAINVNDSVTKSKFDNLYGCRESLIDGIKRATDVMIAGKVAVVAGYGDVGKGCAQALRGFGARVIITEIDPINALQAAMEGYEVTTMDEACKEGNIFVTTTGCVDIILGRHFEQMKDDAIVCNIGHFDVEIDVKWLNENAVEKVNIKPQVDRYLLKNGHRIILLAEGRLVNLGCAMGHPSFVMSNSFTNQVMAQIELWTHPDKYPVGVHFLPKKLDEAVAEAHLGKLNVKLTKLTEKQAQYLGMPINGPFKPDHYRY

[1] = molecular target: T2, Adenosylhomocysteinase (Rattus norvegicus) (UniProt P10760)
T2 sequence (whole entry): T1 sequence (P10760 whole entry)
Description: (§1) Rate constant was evaluated against S-adenosyl-homocysteine hydrolase

[2] = molecular target: T2, Adenosylhomocysteinase (Rattus norvegicus); remark: listed apart in the source
Description: as §1

Ki (Adenosylhomocysteinase) [nM]	k2 [1] [min⁻¹]	k2 [2] [min⁻¹]	SMILES
87	0.05		Nc1ncnc2c1ncn2[C@@H]1C/C(=C\F)[C@@H](O)[C@H]1O
40	0.05		Nc1ncnc2c1ncn2[C@@H]1O/C(=C/F)[C@@H](O)[C@H]1O
39	0.082		Nc1ncnc2c1ncn2[C@@H]1O/C(=C\F)[C@@H](O)[C@H]1O
112		0.031	Nc1ncnc2c1ncn2[C@@H]1C/C(=C/F)[C@@H](O)[C@H]1O
